These results are taken from patent US4550186A, “Binuclear copper (II) carboxylates formed from amine-carboxyboranes” (Duke University, priority 1983, dated 1985).

Assay [1] concerns Phosphatidate Phosphohydrolase. Kind of assay: In vitro liver enzyme study: phosphatidate phosphohydrolase. The assay is classed as biochemical, mouse. The following applies: in vitro CF1 liver, 30 min. The procedure:
In vitro enzymatic studies were determined using 10% homogenates of CF1 male mouse liver with 50-200 μM of test drugs. In vivo enzymatic studies were determined using 10% homogenates of liver from CF1 male mice obtained after administering the agents for 16 days at a dose ranging from 2.5-20 mg/kg/day intraperitoneally. The liver homogenates for both in vitro and in vivo studies were prepared in 0.25M sucrose and 0.001M (ethylenedinitrilo)tetraacetic acid. Acetyl coenzyme A synthetase and adenosine triphosphate dependent citrate lyase activities were determined spectrophotometrically at 540 nm as the hydroxylamate of acetyl coenzyme A formed after 30 min at 37° C. Mitochondrial citrate exchange was determined by the procedure of Robinson et al [Eur. J. Biochem., 216, 63 (1970)] using ^14 C-sodium bicarbonate (41 mCi/mmol) incorporated into mitochondrial ^14 C-citrate after isolating rat mitochondria (9000 g×10 min) from the homogenates. The exchanges of the ^14 C-citrate were determined after incubating the mitochondrial fraction which was loaded with labeled citrate and test drugs for 10 min. Then the radioactivity was measured in the mitochondrial and supernantant fractions in scintillation fluid and expressed as a percentage. Cholesterol side chain oxidation was determined by the method of Kritchevsky and Tepper [Artherosclerosis, 18, 93 (1973)] using (26-^14 C) cholesterol (50 mCi/mmol) and mitochondria isolated from rat liver homogenates. […] Fatty acid synthetase activity was determined by the method of Brady et al [J. Biol. Chem., 235, 3093 (1960)] using [2-^14 C] malonyl-coenzyme A (37.5 mCi/mmol) which was incorporated into newly synthesized fatty acids that were extracted with ether and counted. Acyl transferase activity was determined with glycerol-3phosphate [L-2-^3 H(N)] […] HCl and counted. Phosphatidate phosphohydrolase activity was measured as the inorganic phosphate released after 30 min from phosphatidic acid by the method of Mavis et al [J. Lipid Res., 19, 467 (1978)]. […]

Assay [2] relates to CF1 male mice. The assay is described as follows: Mouse liver lipid content. The following applies: 16 days. The assay is classed as in vivo. How it is done:
In CF1 male mice that had been administered test drugs for 16 days, the liver, small intestine and fecal materials (24 hr collection) were removed and a 10% homogenate in 0.25M sucrose+0.001M (ethylenedinitrilo)tetraacetic acid was prepared. An aliquot (2 ml) of the homogenate was extracted by the methods of Floch et al [J. Biol. Chem., 226, 497 (1957)] and Bligh and Dyer [Can. J. Biochem. Physiol., 37, 911 (1957)] and the number of mg of lipid weighed. The lipid was taken up in methylene chloride and the cholesterol level triglyceride levels, neutral lipid content and phospholipid content were determined.
Data are expressed in the Table 2-7 as percent of control ± the standard deviation. The probable significant level (P) between each test group and the control group was determined by the Student's "t" test.

Turning to “{Cu[(CH3)3 N.BH2 CO2 ]2.(CH3)3 N.BH2 COOH} [Compound I]”, the “Phosphatidate Phosphohydrolase” value in assay [1] (50 μM) was found to be 77 ± 5 Percent Control. In assay [1] (100 μM), the “Phosphatidate Phosphohydrolase” value was found to be 63 ± 6 Percent Control. Also, the “Phosphatidate Phosphohydrolase” value in assay [1] (200 μM) is on record as 35 ± 3 Percent Control. Also, in assay [2] (2.5 mg/kg), the Cholesterol is 71 ± 6% of control, the “Mg of Lipid” value is reported as 82 ± 5% of control, the “Neutral Lipids” value is 79 ± 5% of control and the Phospholipids is reported as 67 ± 6% of control. Further, in assay [2] (2.5 mg/kg), the Protein is reported as 105 ± 6% of control and the Triglycerides is reported as 40 ± 3% of control. Also, in assay [2] (5.0 mg/kg), the Cholesterol is 74 ± 7% of control, the “Mg of Lipid” value was 85 ± 6% of control, the “Neutral Lipids” value is 86 ± 5% of control and the Phospholipids is on record as 92 ± 7% of control. For the same substance, in assay [2] (5.0 mg/kg), the Protein is on record as 92 ± 5% of control and the Triglycerides was 38 ± 4% of control. For the same substance, in assay [2] (10.0 mg/kg), the Cholesterol was 77 ± 7% of control, the “Mg of Lipid” value is 95 ± 6% of control, the “Neutral Lipids” value is reported as 87 ± 4% of control and the Phospholipids is listed as 152 ± 8% of control. In assay [2] (10.0 mg/kg), the Protein is 101 ± 8% of control and the Triglycerides is given as 36 ± 5% of control.
